Data from patent publication US9079896B2, “Urotensin II receptor antagonists” (Janssen Pharmaceutica NV, priority 2008, dated 2015).
Values belong to the compound of their own block, whether it stands above or below them.

How the values were obtained:
[1] = target: T1, Human UII (6D9 human rhabdomyosarcoma cells) (Homo sapiens, UniProt Q9UKP6); assay: Human UII Calcium Mobilization Assay; assay type: cell-based; details: FLIPR TETRA, column head prints Ki (μM), read-out: Human UII Ca+ Mobilization Average IC50
T1 construct: 6D9: isolated by dilution subcloning of RMS13 cells; host or cells: 6D9 human rhabdomyosarcoma cells (subclone of RMS13)
T1 sequence (Q9UKP6 1-389): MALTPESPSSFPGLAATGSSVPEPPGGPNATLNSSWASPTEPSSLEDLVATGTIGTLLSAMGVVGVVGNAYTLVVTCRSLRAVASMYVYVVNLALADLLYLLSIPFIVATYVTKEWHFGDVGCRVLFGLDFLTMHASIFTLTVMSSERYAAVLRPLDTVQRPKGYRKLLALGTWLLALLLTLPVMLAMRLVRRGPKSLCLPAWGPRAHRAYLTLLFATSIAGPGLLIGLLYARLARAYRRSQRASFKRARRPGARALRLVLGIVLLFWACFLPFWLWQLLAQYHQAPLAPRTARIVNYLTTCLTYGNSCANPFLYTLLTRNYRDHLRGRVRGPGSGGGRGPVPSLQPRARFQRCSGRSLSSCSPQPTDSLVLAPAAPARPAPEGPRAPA
Protocol: 25 μL of dye solution was added to the wells such that the final liquid volume before agonist/antagonist treatment was 50 μL for all assays. The cell plates were incubated at 37° C. for 45 minutes and the fluorescence intensity was measured on a Fluorometric Imaging Plate Reader (FLIPR^TETRA, Molecular Devices, Sunnyvale, Calif.).
Antagonist and agonist U-II were added at room temperature on the FLIPR^TETRA, and the fluorescence intensity before and after addition was measured over a period of 4 minutes. The dye incubation time and temperature as well as instrument setting was adjusted so the fluorescence intensity could be compared between plates on the same day. EC50 and IC50 were analyzed using GraphPad Prism 4 software (GraphPad Software Inc., San Diego, Calif.).
For assays, U-II agonist, U-II antagonist and urantide were diluted with HBSS/HEPES containing 0.01% FBS.
Test compounds were dissolved in DMSO at 10 mM concentration. The serial dilutions were carried out in HBSS/HEPES. The highest final DMSO concentration was at 0.1%.

[2] = target: T2, rat GPR14 (U-II receptor) (Rattus norvegicus, UniProt P49684); assay: Rat UII Calcium Mobilization FLIPR Assay; assay type: cell-based; details: antagonist activity after 5 min incubation vs agonist (Ac)-CFWK(2-NaI)C-NH2 at 1 nM; CHO cells transfected with rat GPR14
T2 construct: expressed in transfected cells
T2 sequence (P49684 1-386): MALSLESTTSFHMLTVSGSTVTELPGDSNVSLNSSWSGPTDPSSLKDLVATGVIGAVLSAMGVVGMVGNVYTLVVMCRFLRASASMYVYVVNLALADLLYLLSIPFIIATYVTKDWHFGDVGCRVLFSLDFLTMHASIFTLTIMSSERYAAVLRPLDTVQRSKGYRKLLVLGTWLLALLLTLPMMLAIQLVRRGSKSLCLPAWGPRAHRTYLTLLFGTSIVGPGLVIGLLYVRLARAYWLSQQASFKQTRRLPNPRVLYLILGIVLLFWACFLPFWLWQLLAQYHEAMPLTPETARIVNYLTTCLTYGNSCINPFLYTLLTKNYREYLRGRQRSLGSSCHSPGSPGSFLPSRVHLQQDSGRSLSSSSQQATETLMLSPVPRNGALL
Description: A calcium mobilization assay based on a Fluorescence Imaging Plate
Res. Commun. 1995, 209, 752-759. A. Marchese, M. Heiber, T. Nguyen, H. H. Heng, V. R. Saldivia, R. Cheng, P. M. Murphy, L. C. Tsui, X. Shi, P. Gregor, Genomics 1995, 29, 335-344.).
To derive these cells, the complete coding sequence of rat U-II (Genbank Accession No. U32673) was amplified by nested PCR from rat heart marathon-Ready cDNA. […] The PCR products were cloned into pcDNA3 (Invitrogen) digested with EcoR I and Xba I. Clones containing rat U-II receptor were verified by complete sequencing of the U-II receptor insert to ensure a lack of PCR-introduced errors. The constructed vector was transfected into CHO cells by using lipofectamine (GIBCO BRL). CHO cells with high expression of rat U-II receptor were selected and established as stable cell lines by using G418. CHO cells were seeded at 25,000 cells per well into 96-well, black-wall, clear-bottom microtiter plates 24 h before assay. Cells in culture media (DMEM/F12 containing 15 mM HEPES, L-glutamine, pyridoxine hydrochloride; 10% fetal bovine serum; 1 mg/mL G418 sulfate; antibiotic-antimycotic; pH 7.4) were loaded with proprietary dye, from the FLIPR Calcium Assay Kit (Molecular Devices), prepared in assay buffer (Hanks Balanced Salts Solution, 20 mM HEPES, 0.1% BSA, 2.5 mM probenecid, pH 7.4), and incubated for 1 h at 37° C. […]

[3] = target: T3, UT receptors in Human Skeletal Muscle Myoblasts (HSMM) (Homo sapiens, UniProt Q9UKP6); details: read-out: Human UII Average Binding Ki; 0.150 nM (125I)-U-II, intact HSMM, 3 h, 25° C.
T3 sequence (Q9UKP6 1-389): T1 sequence (Q9UKP6 1-389)

[4] = target: T2, rat GPR14 (U-II receptor); details: agonist cyclic peptide used in the assay; read-out: FLIPR EC50; cited from earlier work
rU-II = target: T4, rU-II (Rattus norvegicus, UniProt P49684); details: agonist cyclic peptide used in the assay; cited from earlier work
T4 sequence (P49684 1-386): T2 sequence (P49684 1-386)

[5] = tested on: isolated arterial rings of rats and humans; details: read-out: EC50 (concentration-dependent contraction); cited from earlier work

IC50 [1]: 0.34 µM
Ki [2]: 6 nM
Ki [3]: 64 nM
Compound: CCN1CCN(c2cccc3c2[C@H]2CCC[C@H](c4ccc(OC)c(OC)c4)N2C3=O)CC1 [Compound 1, (R,R)-4-(3,4-Dimethoxy-phenyl)-10-(4-ethyl-piperazin-1-yl)-1,3,4,10b-tetrahydro-2H-pyrido[2,1-a]isoindol-6-one]

Ki [2]: 34 nM
Compound: CCN1CCN(c2cccc3c2[C@H]2CCCC[C@H](c4ccc(OC)c(OC)c4)N2C3=O)CC1 [Compound 2, (R,R)-7-(3,4-Dimethoxy-phenyl)-1-(4-ethyl-piperazin-1-yl)-7,8,9,10,11,11a-hexahydro-azepino[2,1-a]isoindol-5-one]

Compound: (Ac)-CFWK(2-NaI)C—NH2
EC50 [4]: 0.54 ± 0.2 nM
Ki (rU-II): 0.12 ± 0.05 nM

Compound: AGTAD-cyclo(CFWKYC)-V [Goby U-II, urotensin-II isolated from the urophysis of the goby fish, a 12-mer]
EC50 [5]: < 1 nM
